For one assay, the target named is T1, α7^G175K-GlyR (Homo sapiens, UniProt P36544, G175K).
T1 construct: expressed in transfected cells
The assay is described as follows: Agonist potency at chimeric channel. To be noted: for EC50: Table 6, read-out: Potency, a7GlyR G175K. It is filed as cell-based.

The subject of assay [1] is α7GlyR chimeric channels with G175K and A298G mutations. It is filed as cell-based, human.
Another assay deals with α7^L131G-5HT3 HC. Description: Agonist potency at chimeric channel (Table 9). It is filed as cell-based, human. To be noted: α7^L131G-5HT3 HC; reduction.
Another assay deals with T2, α7-5HT3 (Homo sapiens, UniProt P36544, M226I/T225I).
T2 construct: expressed in transfected cells; host or cells: HEK cells
The assay is described as follows: Agonist potency (EC50), HEK cells expressing chimeric channel. It is filed as cell-based, human α7 nAChR LBD, murine 5HT3 IPD.

The target in a further assay is T3, α7^Q79G-GlyR^A298G (Homo sapiens, UniProt P36544, A298G/Q79G).
T3 construct: expressed in transfected cells; host or cells: HEK cells
The assay is described as above. It is filed as cell-based.

For a further assay, the target named is T4, α7^Y115F,G175K-GlyR (Homo sapiens, UniProt P36544, G175K/Y115F).
T4 construct: expressed in transfected cells
Description: Agonist potency at chimeric channel. It is filed as cell-based. To be noted: Table 6; read-out: Potency, a7GlyR Y115F G175K.

Another assay has as its target T5, α7^Q79G,G175K-GlyR (Homo sapiens, UniProt P36544, G175K/Q79G).
T5 construct: expressed in transfected cells
The assay is described as follows: Agonist potency at chimeric channel. It is filed as cell-based. Conditions: Table 6; read-out: Potency, a7GlyR Q79G G175K.

For the next assay, the target named is T6, α7^W77F,Q79G,G175K-GlyR (Homo sapiens, UniProt P36544, G175K/Q79G/W77F).
T6 construct: expressed in transfected cells
Description: Agonist potency at chimeric channel. It is filed as cell-based. Conditions: Table 6; read-out: Potency, a7GlyR W77F Q79G G175K.

The next assay has as its target T7, α7^Q79G,Y115F,G175K-GlyR (Homo sapiens, UniProt P36544, G175K/Q79G/Y115F).
T7 construct: expressed in transfected cells
Description: Agonist potency at chimeric channel. It is filed as cell-based. To be noted: Table 6; read-out: Potency, a7Gly Q79G G175K Y115F.

Assay [2] addresses T8, α7GlyR Q79G G175K Y115F R27D E41R (Homo sapiens, UniProt P36544, E41R/G175K/Q79G/R27D/Y115F).
T8 construct: expressed in transfected cells
The assay is described as follows: Agonist potency at chimeric channel. It is filed as cell-based. To be noted: Table 6; read-out: Potency, a7GlyR Q79G G175K Y115F R27D E41R.

In another assay the target is T9, α7-GlyR (Homo sapiens, UniProt P36544).
T9 construct: expressed in transfected cells; host or cells: HEK cells
Description: Agonist potency (EC50), HEK cells expressing chimeric channel. It is filed as cell-based.

The target in another assay is T10, α7^Q79A-5HT3 (Homo sapiens, UniProt P36544, M226I/Q79A/T225I).
T10 construct: expressed in transfected cells; host or cells: HEK cells
Described as above. To be noted: HEK cells; Table 1; read-out: Mean EC50, α7^Q79A-5HT3. It is filed as cell-based, human α7 nAChR LBD, murine 5HT3 IPD.

Another assay deals with T11, α7^Q79G-5HT3 (Homo sapiens, UniProt P36544, M226I/Q79G/T225I).
T11 construct: expressed in transfected cells; host or cells: HEK cells
The description is as above. It is filed as cell-based, human α7 nAChR LBD, murine 5HT3 IPD. Conditions: HEK cells; Table 1; read-out: Mean EC50, α7^Q79G-5HT3.

For a further assay, the target named is T12, α7^Q79S-5HT3 (Homo sapiens, UniProt P36544, M226I/Q79S/T225I).
T12 construct: expressed in transfected cells; host or cells: HEK cells
Described as above. It is filed as cell-based, human α7 nAChR LBD, murine 5HT3 IPD. Conditions: HEK cells; Table 1; read-out: Mean EC50, α7^Q79S-5HT3.

In the next assay the target is T13, α7^Q79A-GlyR (Homo sapiens, UniProt P36544, Q79A).
T13 construct: expressed in transfected cells; host or cells: HEK cells
The assay is described as above. It is filed as cell-based. Conditions: HEK cells; Table 2; read-out: Mean EC50 and SEM in parentheses, α7^Q79A-GlyR.

A further assay has as its target T14, α7^Q79G-GlyR (Homo sapiens, UniProt P36544, Q79G).
T14 construct: expressed in transfected cells; host or cells: HEK cells
Described as above. It is filed as cell-based. Conditions: HEK cells; Table 2; read-out: Mean EC50 and SEM in parentheses, α7^Q79G-GlyR.

A further assay concerns the target T15, α7-GlyR^A298G (Homo sapiens, UniProt P36544, A298G).
T15 construct: expressed in transfected cells; host or cells: HEK cells
Described as above. It is filed as cell-based. To be noted: HEK cells; Table 2; read-out: Mean EC50 and SEM in parentheses, α7-GlyR^A298G.

Where [3] appears, read: HEK cells, Table 3, read-out: α7-5HT3 EC50.
The mark [4] stands for this setting: HEK cells, Table 3, read-out: α7^Q79G-GlyR^A298G EC50.
The mark [5] stands for this setting: Table 6, read-out: Potency, a7-5HT3.
Setting [6] is: HEK cells, Table 3, read-out: α7-GlyR EC50.

Consider 24 molecules from patent US11124554B2, “Modified ligand-gated ion channels and methods of use” (Howard Hughes Medical Institute, priority 2016, dated 2021).

Read-outs that look alike come from different tables or passages of the source.

T9 sequence (P36544 with tags, fused parts or gaps): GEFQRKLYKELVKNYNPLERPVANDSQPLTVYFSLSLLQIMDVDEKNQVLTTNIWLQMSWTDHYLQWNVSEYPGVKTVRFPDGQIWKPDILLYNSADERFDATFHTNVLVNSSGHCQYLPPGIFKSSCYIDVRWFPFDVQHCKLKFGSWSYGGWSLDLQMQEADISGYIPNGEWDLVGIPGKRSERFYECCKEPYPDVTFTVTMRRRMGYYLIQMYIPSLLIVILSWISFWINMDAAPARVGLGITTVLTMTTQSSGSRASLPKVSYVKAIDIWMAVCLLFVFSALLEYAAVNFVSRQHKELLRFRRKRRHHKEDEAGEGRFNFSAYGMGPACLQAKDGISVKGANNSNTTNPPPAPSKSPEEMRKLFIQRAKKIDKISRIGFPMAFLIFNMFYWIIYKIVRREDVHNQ
T5 sequence (P36544 with tags, fused parts or gaps Q79G/G175K): as the sequence (P36544 with tags, fused parts or gaps) above, with Q57G, G153K counted along it
T6 sequence (P36544 with tags, fused parts or gaps W77F/Q79G/G175K): as the sequence (P36544 with tags, fused parts or gaps) above, with W55F, Q57G, G153K counted along it
T4 sequence (P36544 with tags, fused parts or gaps Y115F/G175K): as the sequence (P36544 with tags, fused parts or gaps) above, with Y93F, G153K counted along it
T3 sequence (P36544 with tags, fused parts or gaps Q79G): as the sequence (P36544 with tags, fused parts or gaps) above, with Q57G, A276G counted along it
T1 sequence (P36544 with tags, fused parts or gaps G175K): as the sequence (P36544 with tags, fused parts or gaps) above, with G153K counted along it
T2 sequence (P36544 with tags, fused parts or gaps T225I/M226I): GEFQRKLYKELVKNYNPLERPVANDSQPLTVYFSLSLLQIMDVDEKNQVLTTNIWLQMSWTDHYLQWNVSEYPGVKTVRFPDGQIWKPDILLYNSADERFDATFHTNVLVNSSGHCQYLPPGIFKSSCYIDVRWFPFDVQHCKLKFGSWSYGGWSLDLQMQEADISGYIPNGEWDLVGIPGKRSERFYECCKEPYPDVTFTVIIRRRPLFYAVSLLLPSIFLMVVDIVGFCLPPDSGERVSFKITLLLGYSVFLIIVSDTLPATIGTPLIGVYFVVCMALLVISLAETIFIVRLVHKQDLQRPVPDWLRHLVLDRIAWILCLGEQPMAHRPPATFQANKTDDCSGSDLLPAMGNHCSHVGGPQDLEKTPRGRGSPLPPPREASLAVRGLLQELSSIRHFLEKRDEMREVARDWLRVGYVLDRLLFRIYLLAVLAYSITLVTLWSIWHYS
T7 sequence (P36544 with tags, fused parts or gaps Q79G/Y115F/G175K): as the sequence (P36544 with tags, fused parts or gaps) above, with Q57G, Y93F, G153K counted along it
T8 sequence (P36544 with tags, fused parts or gaps R27D/E41R/Q79G/Y115F/G175K): as the sequence (P36544 with tags, fused parts or gaps) above, with R5D, E19R, Q57G, Y93F, G153K counted along it
T13 sequence (P36544 with tags, fused parts or gaps Q79A): as the sequence (P36544 with tags, fused parts or gaps) above, with Q57A counted along it
T11 sequence (P36544 with tags, fused parts or gaps Q79G/T225I/M226I): as the sequence (P36544 with tags, fused parts or gaps T225I/M226I) above, with Q57G counted along it
T10 sequence (P36544 with tags, fused parts or gaps Q79A/T225I/M226I): as the sequence (P36544 with tags, fused parts or gaps T225I/M226I) above, with Q57A counted along it
T14 sequence (P36544 with tags, fused parts or gaps Q79G): as the sequence (P36544 with tags, fused parts or gaps) above, with Q57G counted along it
T15 sequence (P36544 with tags, fused parts or gaps, stated change not applied): as the sequence (P36544 with tags, fused parts or gaps) above, with A276G counted along it
T12 sequence (P36544 with tags, fused parts or gaps Q79S/T225I/M226I): as the sequence (P36544 with tags, fused parts or gaps T225I/M226I) above, with Q57S counted along it

In the case of `CN1CCCC1c1cccnc1` (centres unmarked) [Nicotine], the “potency enhancement over α7-GlyR” value on α7^G175K-GlyR amounted to 10 fold. In addition, the EC50 in assay [1] (read-out: Agonist potency; α7GlyR Q79G A298G G175K Y115F) is 3300 nM; in [1] (read-out: Agonist potency; α7GlyR Q79G A298G P2161), 1600 nM; in assay [1] (read-out: Agonist potency; α7GlyR Q79G A298G Y115F K395 K396A) it was 16500 nM; in [1] (read-out: Agonist potency; α7GlyR Q79G G175K A298G), 110 nM; in assay [1] (read-out: Agonist potency; α7GlyR Q79G W77F A298G), 3800 nM.
With `CC(=O)OCC[N+](C)(C)C` [Acetylcholine], the “reduced ACh responsiveness” value in the assay on α7^L131G-5HT3 HC is on record as 5 fold.
`CN1C2CCC1CC(NC(=S)c1c[nH]c3ccccc13)C2` (centres unmarked) [Compound 0542]: the EC50 at α7-5HT3 (setting [3]) worked out at 3800 nM; at α7^Q79G-GlyR^A298G (setting [4]), 72 nM.
Turning to `COc1ccc2[nH]cc(C(=O)O[C@H]3C[C@H]4CC[C@@H](C3)N4C)c2c1` [Compound 736], the EC50 on α7-5HT3 (setting [5]) was 830 nM; on α7^Y115F,G175K-GlyR, 570 nM; at α7^Q79G,G175K-GlyR it was 44 nM; on α7^W77F,Q79G,G175K-GlyR it was 60 nM; at α7^Q79G,Y115F,G175K-GlyR, 78 nM; in [2], 78 nM.
`FC(F)(F)Oc1ccc(NC(=S)N[C@@H]2CN3CCC2CC3)cc1` [Compound 713]: the EC50 at α7-5HT3 (setting [5]) was above 100000 nM; at α7^G175K-GlyR, 2100 nM; on α7^Y115F,G175K-GlyR it was above 10000 nM; on α7^Q79G,G175K-GlyR, 540 nM; on α7^Q79G,Y115F,G175K-GlyR it was 23900 nM; in assay [2], above 10000 nM.
`O=C(NC1CN2CCC1CC2)c1ccc(C(F)(F)F)cn1` (centres unmarked) [Compound 0295]: the EC50 at α7-5HT3 (setting [3]) is above 100000 nM; at α7-GlyR (setting [6]), above 100000 nM; on α7^Q79G-GlyR^A298G (setting [4]), 4600 nM.
Take `Cc1ccc(Cl)cc1NC(=S)N[C@H]1CN2CCC1CC2` [Compound 705]: the EC50 at α7-5HT3 (setting [5]) was above 100000 nM; at α7^Y115F,G175K-GlyR, above 10000 nM.
For the molecule `O=C(O[C@H]1C[C@H]2CC[C@@H](C1)N2)c1c[nH]c2ccccc12` [Nortropisetron], the EC50 in assay [1] (α7GlyR Q79G A298G G175K Y115F; read-out: Agonist potency) is 8.4 nM; in [1] (α7GlyR Q79G A298G Y115F K395 K396A; read-out: Agonist potency), 6.3 nM.
`O=C(Nc1ccccc1)NC1CN2CCC1CC2` (centres unmarked) [Compound 0353]: the EC50 came out at 650 nM at α7-5HT3 (setting [3]), 270 nM on α7-GlyR (setting [6]) and 10 nM at α7^Q79G-GlyR^A298G (setting [4]).
Regarding `Fc1ccc(Cl)cc1NC(=S)N[C@H]1CN2CCC1CC2` [Compound 703], the EC50 on α7-5HT3 (setting [5]) was above 100000 nM.
`CN(C)CCCN1c2ccccc2Sc2ccccc21` [Promazine]: the EC50 at α7-5HT3 (setting [5]) and on α7^Q79G,Y115F,G175K-GlyR was above 100000 nM each time.
With `FC(F)(F)Oc1ccc(NC(=S)N[C@H]2CN3CCC2CC3)cc1` [Compound 684], the EC50 on α7-5HT3 (setting [5]) is above 100000 nM; at α7^G175K-GlyR, 230 nM; at α7^Q79G,G175K-GlyR, 78 nM; at α7^Q79G,Y115F,G175K-GlyR it was 790 nM; in assay [2], 400 nM.
As to `Cn1cc(C(=O)C(=O)NC2CN3CCC2CC3)c2ccccc21` (centres unmarked) [RS56812], the EC50 was 10000 nM on α7-5HT3 (HEK cells, Table 1, read-out: Mean EC50, α7-5HT3); 6800 nM at α7^Q79A-5HT3; 1400 nM at α7^Q79G-5HT3; 5700 nM on α7^Q79S-5HT3; 6500 nM at α7-GlyR (HEK cells, Table 2, read-out: Mean EC50 and SEM in parentheses, α7 GlyR); 3500 nM at α7^Q79A-GlyR. Further, the EC50 at α7^Q79G-GlyR worked out at 2000 nM; at α7-GlyR^A298G, 2300 nM; at α7^Q79G-GlyR^A298G (HEK cells, Table 2, read-out: Mean EC50 and SEM in parentheses, α7^Q79G-GlyR^A298G), 610 nM.
With `O=C(NC1CN2CCC1CC2)c1ccc(C(F)(F)F)nc1` (centres unmarked) [Compound 0296], the EC50 at α7-5HT3 (setting [3]) was above 100000 nM; on α7^Q79G-GlyR^A298G (setting [4]), 450 nM.
Consider `COc1ccc(OC)c(C(=O)NC2C3CCN(CC3)C2Cc2cccnc2)c1` (mixture of isomers) [Compound 0434], for which the EC50 at α7-5HT3 (setting [3]) is above 10000 nM; at α7-GlyR (setting [6]) it was above 10000 nM; at α7^Q79G-GlyR^A298G (setting [4]), 190 nM.
In the case of `CN1C2CCC1CC(NC(=S)c1cn(C)c3ccccc13)C2` (centres unmarked) [Compound 622], the EC50 was above 100000 nM on α7-5HT3 (setting [5]); 870 nM on α7^G175K-GlyR; 2500 nM on α7^Y115F,G175K-GlyR; 1700 nM on α7^W77F,Q79G,G175K-GlyR; 930 nM at α7^Q79G,Y115F,G175K-GlyR.
As for `O=C(NC1CN2CCC1CC2)c1c[nH]c2ccccc12` (centres unmarked) [Compound 0676], the EC50 on α7-5HT3 (setting [3]) came to 30 nM; on α7^Q79G-GlyR^A298G (setting [4]), 2 nM.
Take `Fc1ccc(NC(=S)N[C@H]2CN3CCC2CC3)cc1Cl` [Compound 702]: the EC50 on α7-5HT3 (setting [5]) was above 100000 nM.
In the case of `S=C(Nc1ccc(Cl)cc1)NC1CN2CCC1CC2` (centres unmarked) [Compound 0354], at α7-5HT3 (HEK cells, Table 3), the “partial agonist activity, α7-5HT3” value is reported as “partial”. For the same molecule, the EC50 came to 1400 nM at α7-5HT3 (read-out: α7-5HT3 EC50, HEK cells, Table 3); 1000 nM on α7-GlyR; 30 nM at α7^Q79G-GlyR^A298G (setting [4]).
Take `c1ccc2c(c1)Sc1ccccc1N2CC1CN2CCC1CC2` (centres unmarked) [Mequitazine]: the EC50 at α7-5HT3 (setting [5]) is above 30000 nM; on α7^W77F,Q79G,G175K-GlyR, 150 nM; at α7^Q79G,Y115F,G175K-GlyR, above 10000 nM.
With `Fc1c(Cl)cccc1NC(=S)N[C@H]1CN2CCC1CC2` [Compound 701], at α7-5HT3 (setting [5]), the EC50 was above 100000 nM.
With `CN1[C@@H]2CCC[C@H]1C[C@@H](NC(=S)c1ccc(Cl)cc1)C2` [Compound 0536], the EC50 is above 33000 nM on α7-5HT3 (setting [3]), above 100000 nM on α7-GlyR (setting [6]) and 9100 nM at α7^Q79G-GlyR^A298G.
In the case of `O=C(NC1C2CCN(CC2)C1Cc1cccnc1)c1ccc(C(F)(F)F)cc1` (mixture of isomers) [Compound 0436], the EC50 was found to be 840 nM on α7-5HT3 (setting [3]), 310 nM on α7-GlyR (setting [6]) and 6 nM at α7^Q79G-GlyR^A298G (setting [4]).
As to `CN1C2CCCC1CC(NC(=O)c1nn(C)c3ccccc13)C2` (centres unmarked) [Granisetron], at α7-5HT3, the “activation of α7-5HT3” value is reported as “does not activate”. The “activation of α7-GlyR” value at α7-GlyR is listed as “does not activate”.
